Experiments:
[1] = Compound stability in human liver microsomes; type: in vitro ADME; conditions: pH 7.4; for CLint scaled at 5 μM: liver microsomes, in vivo CLint extrapolated from human liver microsome incubation; for half-life at 5 μM: human liver microsomes 0.5 mg protein/mL, compound 5 μM, NADPH, 37° C., read-out: Human T1/2
Protocol: (§1) Human or rat liver microsomes incubations were conducted in duplicate in polypropylene tubes. The typical incubation mixtures consisted of human or rat liver microsomes (0.5 mg protein/mL), compounds of interest (5 μM) and NADPH (1.0 mM) in a total volume of 200 μL potassium phosphate buffer (PBS, 100 mM, pH 7.4). Compounds were dissolved in DMSO and diluted with PBS such that the final concentration of DMSO was 0.05%. The enzymatic reactions were commenced with the addition of protein after a 3-min preincubation and incubated in a water bath open to the air at 37° C. Reactions were terminated at various time points (0, 5, 10, 15, 30, 60 min) by adding equal volume of ice-cold acetonitrile. The samples were stored at −80° C. until LC/MS/MS assays.
(§2) The concentrations of compounds in the incubation mixtures of human or rat liver microsomes were determined by a LC/MS/MS method. The ranges of the linearity in the concentration range were determined for each tested compounds.
(§3) A parallel incubation was performed using denatured microsomes as the negative control, and reactions were terminated at various time points (0, 15, 60 min) after incubation at 37° C.
(§4) Dextromethorphan (70 μM) was selected as the positive control, and reactions were terminated at various time points (0, 5, 10, 15, 30, 60 min) after incubation at 37° C. Both positive and negative control samples were included in each assay to ensure the integrity of the microsomal incubation system.
(§5) The concentrations of compounds in human or rat liver microsome incubations were plotted as a percentage of the relevant zero time point control for each reaction.

[2] = Compound stability in rat liver microsomes; type: in vitro ADME; conditions: pH 7.4; for CLint scaled at 5 μM: liver microsomes, in vivo CLint extrapolated from rat liver microsome incubation; for half-life at 5 μM: rat liver microsomes 0.5 mg protein/mL, compound 5 μM, NADPH, 37° C., read-out: Rat T1/2
Protocol: as §1, §2, §3, §4, §5

| Compound | CLint scaled at 5 μM [1] [L/h/kg] | half-life at 5 μM [1] [min] | CLint scaled at 5 μM [2] [L/h/kg] | half-life at 5 μM [2] [min] |
| --- | --- | --- | --- | --- |
| Cc1nc(-c2c(N)ncnc2N[C@@H](C)c2nc3cccc(C#CC(C)O)c3c(=O)n2-c2ccccc2)no1 (stereo partly drawn) [Example 6, 2-((S)-1-((6-amino-5-(5-methyl-1,2,4-oxadiazol-3-yl)pyrimidin-4-yl)amino)ethyl)-5-(3-hydroxybut-1-yn-1-yl)-3-phenylquinazolin-4(3H)-one] | 1.45 | 71.9 | 2.5 | 59.7 |
| CC#Cc1cccc2nc([C@H](C)Nc3ncnc(N)c3-c3nnn(C)n3)n(-c3ccccc3)c(=O)c12 [Example 12, (S)-2-(1-((6-amino-5-(2-methyl-2H-tetrazol-5-yl)pyrimidin-4-yl)amino)ethyl)-3-phenyl-5-(prop-1-yn-1-yl)quinazolin-4(3H)-one] | 5.88 | 17.7 | 4.25 | 35 |
| CC(O)C#Cc1cccc2nc([C@H](C)Nc3ncnc(N)c3-c3nnn(C)n3)n(-c3ccccc3)c(=O)c12 (stereo partly drawn) [Example 8, 2-((S)-1-((6-amino-5-(2-methyl-2H-tetrazol-5-yl)pyrimidin-4-yl)amino)ethyl)-5-(3-hydroxybut-1-yn-1-yl)-3-phenylquinazolin-4(3H)-one] | 0.94 | 111 | 1.98 | 75.4 |
| C#Cc1cccc2nc([C@H](C)Nc3ncnc(N)c3-c3ncn(C)n3)n(-c3ccccc3)c(=O)c12 [Example 49, (S)-2-(1-((6-amino-5-(1-methyl-1H-1,2,4-triazol-3-yl)pyrimidin-4-yl)amino)ethyl)-5-ethynyl-3-phenylquinazolin-4(3H)-one] | 15.6 | 6.7 | 6.43 | 23.2 |
| CC#Cc1cccc2nc([C@H](CC)Nc3ncnc(N)c3-c3nnc(C)o3)n(C3CC3)c(=O)c12 [Example 27, (S)-2-(1-((6-amino-5-(5-methyl-1,3,4-oxadiazol-2-yl)pyrimidin-4-yl)amino)propyl)-3-cyclopropyl-5-(prop-1-yn-1-yl)quinazolin-4(3H)-one] | 6.28 | 16.6 | 5.46 | 27.3 |

The remaining lines, values ahead:

| CLint scaled at 5 μM [1] [L/h/kg] | half-life at 5 μM [1] [min] | CLint scaled at 5 μM [2] [L/h/kg] | half-life at 5 μM [2] [min] | Compound |
| --- | --- | --- | --- | --- |
| 2.86 | 36.5 | 2.09 | 71.4 | C#Cc1cccc2nc([C@H](C)Nc3ncnc(N)c3-c3nnc(C)o3)n(C3CC3)c(=O)c12 [Example 50, (S)-2-(1-((6-amino-5-(5-methyl-1,3 4-oxadiazol-2-yl)pyrimidin-4-yl)amino)ethyl)-3-cyclopropyl-5-ethynylquinazolin-4(3H)-one] |
| 1.57 | 66.4 | 1.33 | 112 | Cc1noc(-c2c(N)ncnc2N[C@@H](C)c2nc3cccc(C#CCO)c3c(=O)n2C2CC2)n1 [Example 30, (S)-2-(1-((6-amino-5-(3-methyl-1,2,4-oxadiazol-5-yl)pyrimidin-4-yl)amino)ethyl)-3-cyclopropyl-5-(3-hydroxyprop-1-yn-1-yl)quinazolin-4(3H)-one] |
| 7.07 | 14.8 | 7.99 | 18.7 | C#Cc1cccc2nc([C@H](C)Nc3ncnc(N)c3-c3noc(C)n3)n(C3CC3)c(=O)c12 [Example 51, (S)-2-(1-((6-amino-5-(5-methyl-1,2,4-oxadiazol-3-yl)pyrimidin-4-yl)amino)ethyl)-3-cyclopropyl-5-ethynylquinazolin-4(3H)-one] |
| 3.78 | 27.6 | 5.84 | 25.5 | CC#Cc1cccc2nc([C@H](C)Nc3ncnc(N)c3-c3noc(C)n3)n(-c3ccccc3)c(=O)c12 [Example 11, (S)-2-(1-((6-amino-5-(5-methyl-1,2,4-oxadiazol-3-yl)pyrimidin-4-yl)amino)ethyl)-3-phenyl-5-(prop-1-yn-1-yl)quinazolin-4(3H)-one] |

From patent US10751339B2, “Substituted aminopyrimidine compounds and methods of use” (SUNSHINE LAKE PHARMA CO., LTD., priority 2018, dated 2020)
